According to US20170050957A1, “4-AMINO-6-(HETEROCYCLIC)PICOLINATES AND 6-AMINO-2-(HETEROCYCLIC)PYRIMIDINE-4-CARBOXYLATES AND THEIR USE AS HERBICIDES” (Dow AgroSciences LLC, priority 2013, published 2017):
Read-outs that look alike come from different tables or passages of the source.

What was measured:
[1] = tested on: Key Broadleaf Weed and Crop Species; test: Post-emergent Test II herbicidal activity (Table 15); format: in vivo; settings: post-emergence, 336 h, 14 d; for pest or weed control at 35 g/ha: 35 g ai/ha; for pest or weed control at 70 g/ha: 70 g ai/ha; for pest or weed control at 140 g/ha: 140 g ai/ha
Method in brief: (§1)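 Post-emergence spray; seedlings 7-21 d old, 1st-2nd true leaf; 187 L/ha; serial rates 1×-1/16×; solvent blank controls; subirrigated; visual % injury at 14 d.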

[2] = tested on: Key Grass and Sedge Weeds as well as Grass Crops; test: Post-emergent Test II herbicidal activity (Table 16); format: in vivo; settings: post-emergence, 336 h, 14 d; for pest or weed control at 35 g/ha: 35 g ai/ha; for pest or weed control at 70 g/ha: 70 g ai/ha; for pest or weed control at 140 g/ha: 140 g ai/ha
Method in brief: as §1

[3] = Abutilon theophrasti, velvetleaf (Abutilon theophrasti), read-out: Visual Growth Reduction (%) 14 Days After Application, ABUTH
[4] = Amaranthus retroflexus, redroot pigweed (Amaranthus retroflexus), read-out: Visual Growth Reduction (%) 14 Days After Application, AMARE
[5] = Brassica napus, oilseed rape, canola (Brassica napus), read-out: Visual Growth Reduction (%) 14 Days After Application, BRSNN
[6] = Chenopodium album, lambsquarters (Chenopodium album), read-out: Visual Growth Reduction (%) 14 Days After Application, CHEAL
[7] = Euphorbia heterophylla, wild poinsettia (Euphorbia heterophylla), read-out: Visual Growth Reduction (%) 14 Days After Application, EPHHL
[8] = Helianthus annuus, sunflower (Helianthus annuus), read-out: Visual Growth Reduction (%) 14 Days After Application, HELAN
[9] = Cyperus esculentus, yellow nutsedge (Cyperus esculentus), read-out: Visual Growth Reduction (%) 14 Days After Application, CYPES
[10] = Echinochloa crus-galli, barnyardgrass (Echinochloa crus-galli), read-out: Visual Growth Reduction (%) 14 Days After Application, ECHCG
[11] = Oryza sativa, rice (Oryza sativa), read-out: Visual Growth Reduction (%) 14 Days After Application, ORYSA
[12] = Setaria faberi, giant foxtail (Setaria faberi), read-out: Visual Growth Reduction (%) 14 Days After Application, SETFA
[13] = Triticum aestivum, wheat, spring (Triticum aestivum), read-out: Visual Growth Reduction (%) 14 Days After Application, TRZAS
[14] = Zea mays, maize, corn (Zea mays), read-out: Visual Growth Reduction (%) 14 Days After Application, ZEAMX

With `Nc1c(F)c(-c2ccc3occc3c2)nc(C(=O)O)c1Cl` [Compound 2.02] the melting point was 165 to 167 °C, the pest or weed control at 35 g/ha [1, 3] was 45 to 59% and the pest or weed control at 70 g/ha [1, 3] was 85 to 94%. The pest or weed control at 140 g/ha [1, 3] was 85 to 94%, the pest or weed control at 35 g/ha [1, 4] was 75 to 84% and the pest or weed control at 70 g/ha [1, 4] was 95 to 100%. The pest or weed control at 140 g/ha [1, 4] was 95 to 100%, the pest or weed control at 35 g/ha [1, 5] was 0 to 29% and the pest or weed control at 70 g/ha [1, 5] was 30 to 44%. For the same compound, the pest or weed control at 140 g/ha [1, 5] was 30 to 44%, the pest or weed control at 35 g/ha [1, 6] was 95 to 100% and the pest or weed control at 70 g/ha [1, 6] was 95 to 100%. The pest or weed control at 140 g/ha [1, 6] was 95 to 100%, the pest or weed control at 35 g/ha [1, 7] was 75 to 84% and the pest or weed control at 70 g/ha [1, 7] was 95 to 100%. For the same compound, the pest or weed control at 140 g/ha [1, 7] was 95 to 100%, the pest or weed control at 35 g/ha [1, 8] was 75 to 84% and the pest or weed control at 70 g/ha [1, 8] was 85 to 94%. The pest or weed control at 140 g/ha [1, 8] was 95 to 100%, the pest or weed control at 35 g/ha [2, 9] was 0 to 29% and the pest or weed control at 70 g/ha [2, 9] was 0 to 29%. For the same compound, the pest or weed control at 140 g/ha [2, 9] was 0 to 29%, the pest or weed control at 35 g/ha [2, 10] was 85 to 94% and the pest or weed control at 70 g/ha [2, 10] was 85 to 94%. For the same compound, the pest or weed control at 140 g/ha [2, 10] was 95 to 100%, the pest or weed control at 35 g/ha [2, 11] was 0 to 29% and the pest or weed control at 70 g/ha [2, 11] was 0 to 29%. For the same compound, the pest or weed control at 140 g/ha [2, 11] was 0 to 29%, the pest or weed control at 35 g/ha [2, 12] was 60 to 74% and the pest or weed control at 70 g/ha [2, 12] was 60 to 74%. The pest or weed control at 140 g/ha [2, 12] was 75 to 84%, the pest or weed control at 35 g/ha [2, 13] was 0 to 29% and the pest or weed control at 70 g/ha [2, 13] was 30 to 44%. The pest or weed control at 140 g/ha [2, 13] was 45 to 59%, the pest or weed control at 35 g/ha [2, 14] was 95 to 100% and the pest or weed control at 70 g/ha [2, 14] was 95 to 100%. It also gave a pest or weed control at 140 g/ha [2, 14] of 95 to 100%.
